Test results published in patent US20100249234A1, “METHODS OF REDUCING VIRULENCE IN BACTERIA” (UWM RESEARCH FOUNDATION, INC., priority 2007, published 2010).

Assays:
Format in all cases: cell-based, Dickeya dadantii 3937 (Ech3937)
rsmB mRNA = experiment: qRT-PCR relative mRNA level of rsmB; conditions: MM supplemented with PCA, p=0.928 (FIG. 14)
Protocol: (§1) Bacterial strains were grown in MM. Total RNA from the bacterial cells was isolated by using the TRI reagent method (Sigma, Mo.) and treated with Turbo DNA-free DNase kits (Ambion, TX) as described (Peng et al., 2006). An iScript cDNA Synthesis Kit (Bio-Rad, CA) was used to synthesize cDNA from 0.5 μg of treated total RNA. The Real Master Mix (Eppendorf, Westbury, N.Y.) was used for qRT-PCR reaction to quantify the cDNA level of target genes in different samples. The rplU was used as the endogenous control for data analysis. qRT-PCR data were analyzed using Relative Expression Software Tool as described (Pfaffl, M. W., Horgan, G. W., and Dempfle, L. (2002) Relative expression software tool (REST) for group-wise comparison and statistical analysis of relative expression results in real-time PCR. Nucleic Acids Res 30:e36.).

hrpA mRNA = experiment: qRT-PCR relative mRNA level of hrpA; conditions: 0.1 mM PCA, P=0.001 (FIG. 14)
Protocol: as §1

hrpL mRNA = experiment: qRT-PCR relative mRNA level of hrpL; conditions: MM supplemented with PCA vs MM alone (normalized to 1), P=0.001
Protocol: as §1

hrpA promoter = hrpA promoter activity, GFP reporter plasmid phrpA, flow cytometry (FACS); conditions: for GFP intensity (Mean Fluorescence Intensity) of Ech3937 (phrpA): MM + 0.1 mM PCA (MMPCA); for expression of hrpA, GFP intensity (Mean Fluorescence Intensity), Ech3937 carrying phrpA: MM + 0.1 mM compound; for GFP intensity (Mean Fluorescence Intensity) of WPP96 (phrpA): hrpL mutant WPP96; for GFP intensity (Mean Fluorescence Intensity) of WPP96 (phrpA) / GFP intensity (Mean Fluorescence Intensity) of WPP90 (phrpA) / GFP intensity (Mean Fluorescence Intensity) of WPP67 (phrpA) / GFP intensity (Mean Fluorescence Intensity) of WPP92 (phrpA): MM + 0.1 mM PCA; for GFP intensity (Mean Fluorescence Intensity) of WPP90 (phrpA): hrpS mutant WPP90; for GFP intensity (Mean Fluorescence Intensity) of WPP67 (phrpA): hrpX mutant WPP67; for GFP intensity (Mean Fluorescence Intensity) of WPP92 (phrpA): hrpY mutant WPP92
Protocol: (§2) FACS analysis of promoter activity of dspE, hrpA, hrpL, hrpN, and hrpS was carried out as described (Peng et al., 2006). Briefly, the wild-type Ech3937 and the mutant strains carrying the promoter reporter plasmid were grown on LB broth at 28° C. overnight and transferred to appropriate media. For FACS analysis, samples were collected by centrifugation, washed with 1× phosphate buffer saline (PBS) at 13,000 rpm for 1 min, and re-suspended in 1×PBS to ca 10^6 CFU/ml prior to being run in a FACS Calibur flow cytometer (BD Biosciences, CA). Three replicates were performed for each treatment.
To identify potential compounds that repress activation of T3SS, analogs and isomers of TCA and intermediates of salicylic acid and phenypropanoid biosynthesis pathways in plants were further screened for their effect on Ech3937 hrpA expression by flow cytometry (Table 9). A green fluorescent protein (GFP) reporter plasmid phrpA (pProbe-AT derivative with PCR fragment containing hrpA promoter region) was constructed, resulting in a transcriptional fusion of hrpA promoter with GFP gene. Bacterial cells containing phrpA plasmid were grown in MM supplemented with 0.1 mM of each compound. GFP intensity, which is a measurement of hrpA promoter activity, was measured by flow cytometry.

hrpL promoter = hrpL promoter activity, GFP reporter plasmid phrpL, flow cytometry (FACS); conditions: MM + 0.1 mM PCA (MMPCA)
Protocol: as §2
Since OCA and TCA induced the expression of hrpN, the effect of these two phenolic compounds on the expression of hrpA, hrpL, and hrpS was investigated further. […] GFP intensity was determined on gated populations of bacterial cells by flow cytometry and analyzed with the Cell Quest software (BD Biosciences, San Jose, Calif.). The lines labeled “1” stand for the GFP expression control base level of the Ech3937 containing pPROBE-AT vector; lines labeled “2” stand for the promoter activity of hrpS, hrpL, hrpA and hrpN in Ech3937 in MM; lines labeled “3” stand for the promoter activity of Ech3937 in MM supplemented with 0.1 mM OCA; lines labeled “4” stand for the promoter activity of hrpL mutant WPP96 in MM; lines labeled “5” stand for the promoter activity of hrpL mutant WPP96 in MM supplemented with 0.1 mM OCA. Values are representative of at least two experiments. […] Compared with MM alone, the average GFP fluorescence intensity of bacterial cells of Ech3937 (phrpA) was doubled when 0.1 mM of OCA and TCA were added to the medium (Table 4; FIG. 3). […] The mrp, whose protein product has an ATPase conserved domain (2e-06), was used as a reference gene in this study.

hrpN promoter = hrpN promoter activity, GFP reporter plasmid phrpN, flow cytometry (FACS); conditions: for GFP intensity (Mean Fluorescence Intensity) of Ech3937 (phrpN): MM + 0.1 mM PCA (MMPCA); for GFP intensity (Mean Fluorescence Intensity) of WPP96 (phrpN): hrpL mutant WPP96; for GFP intensity (Mean Fluorescence Intensity) of WPP96 (phrpN) / GFP intensity (Mean Fluorescence Intensity) of WPP90 (phrpN) / GFP intensity (Mean Fluorescence Intensity) of WPP67 (phrpN) / GFP intensity (Mean Fluorescence Intensity) of WPP92 (phrpN): MM + 0.1 mM PCA; for GFP intensity (Mean Fluorescence Intensity) of WPP90 (phrpN): hrpS mutant WPP90; for GFP intensity (Mean Fluorescence Intensity) of WPP67 (phrpN): hrpX mutant WPP67; for GFP intensity (Mean Fluorescence Intensity) of WPP92 (phrpN): hrpY mutant WPP92
hrpS mRNA = experiment: qRT-PCR relative mRNA level of hrpS; conditions: MM supplemented with PCA vs MM alone (normalized to 1), P=0.001
Protocol: as §1

dspE mRNA = experiment: qRT-PCR relative mRNA level of dspE; conditions: 0.1 mM PCA, P=0.001 (FIG. 14)
Protocol: as §1

O=C(O)/C=C/c1ccc(O)cc1 [PCA, p-coumaric acid]
rsmB gene expression, MM vs supplemented MM (qRT-PCR) (rsmB mRNA): No significant difference
hrpA mRNA compared with MM alone (normalized to 1), qRT-PCR (hrpA mRNA): significantly lower amount of mRNA
hrpL mRNA relative expression ratio (hrpL mRNA): 0.039
reduction of average GFP fluorescence intensity of Ech3937 (phrpA) compared with MM alone (hrpA promoter; 0.05 and 0.1 mM of PCA, 12 h and 24 h (FIGS. 16A, 16B)): more than 4 fold
GFP intensity (Mean Fluorescence Intensity) of Ech3937 (phrpA) (hrpA promoter; 12 h (Table 10)): 10.3 ± 1.3
GFP intensity (Mean Fluorescence Intensity) of Ech3937 (phrpA) (hrpA promoter; 12 h (Table 11)): 9.2 ± 0.4
GFP intensity (Mean Fluorescence Intensity) of Ech3937 (phrpA) (hrpA promoter; 24 h (Table 10)): 18.5 ± 3.5
GFP intensity (Mean Fluorescence Intensity) of Ech3937 (phrpA) (hrpA promoter; 24 h (Table 11)): 12.7 ± 0.3
effect on expression of hrpA (screen result) (hrpA promoter; MM + 0.1 mM compound (Table 9)): inhibitors of the expression of hrpA
expression of hrpA, GFP intensity (Mean Fluorescence Intensity), Ech3937 carrying phrpA (hrpA promoter; 6 h (Table 9)): 6.9 ± 0.1
expression of hrpA, GFP intensity (Mean Fluorescence Intensity), Ech3937 carrying phrpA (hrpA promoter; 12 h (Table 9)): 10.2 ± 0.4
expression of hrpA, GFP intensity (Mean Fluorescence Intensity), Ech3937 carrying phrpA (hrpA promoter; 24 h (Table 9)): 11.4 ± 1.0
reduction of GFP fluorescence intensity of Ech3937 (phrpA) (hrpA promoter; PCA at 0.001, 0.005 and 0.01 (FIGS. 16A, 16B)): did not result in substantial reduction
GFP intensity (Mean Fluorescence Intensity) of WPP96 (phrpA) (hrpA promoter; 12 h): 7.3 ± 0.1
GFP intensity (Mean Fluorescence Intensity) of WPP96 (phrpA) (hrpA promoter; 24 h): 9.0 ± 1.6
GFP intensity (Mean Fluorescence Intensity) of WPP90 (phrpA) (hrpA promoter; 12 h): 7.9 ± 0.2
GFP intensity (Mean Fluorescence Intensity) of WPP90 (phrpA) (hrpA promoter; 24 h): 9.3 ± 0.2
GFP intensity (Mean Fluorescence Intensity) of WPP67 (phrpA) (hrpA promoter; 12 h): 7.9 ± 0.2
GFP intensity (Mean Fluorescence Intensity) of WPP67 (phrpA) (hrpA promoter; 24 h): 9.0 ± 1.3
GFP intensity (Mean Fluorescence Intensity) of WPP92 (phrpA) (hrpA promoter; 12 h): 6.9 ± 0.1
GFP intensity (Mean Fluorescence Intensity) of WPP92 (phrpA) (hrpA promoter; 24 h): 9.4 ± 0.7
GFP intensity (Mean Fluorescence Intensity) of Ech3937 (phrpL) (hrpL promoter; 12 h (Table 10)): 7.8 ± 0.1
GFP intensity (Mean Fluorescence Intensity) of Ech3937 (phrpL) (hrpL promoter; 24 h (Table 10)): 11.1 ± 3.3
GFP intensity (Mean Fluorescence Intensity) of Ech3937 (phrpN) (hrpN promoter; 12 h (Table 10)): 6.8 ± 0.8
GFP intensity (Mean Fluorescence Intensity) of Ech3937 (phrpN) (hrpN promoter; 12 h (Table 11)): 4.3 ± 0.1
GFP intensity (Mean Fluorescence Intensity) of Ech3937 (phrpN) (hrpN promoter; 24 h (Table 10)): 11.3 ± 3.4
GFP intensity (Mean Fluorescence Intensity) of Ech3937 (phrpN) (hrpN promoter; 24 h (Table 11)): 8.8 ± 2.1
promoter activity (expression) of hrpN compared with MM alone (hrpN promoter; MM supplemented with 0.1 mM PCA): reduced expression
GFP intensity (Mean Fluorescence Intensity) of WPP96 (phrpN) (hrpN promoter; 12 h): 3.0 ± 0.0
GFP intensity (Mean Fluorescence Intensity) of WPP96 (phrpN) (hrpN promoter; 24 h): 4.3 ± 0.1
GFP intensity (Mean Fluorescence Intensity) of WPP90 (phrpN) (hrpN promoter; 12 h): 3.5 ± 0.1
GFP intensity (Mean Fluorescence Intensity) of WPP90 (phrpN) (hrpN promoter; 24 h): 5.1 ± 0.1
GFP intensity (Mean Fluorescence Intensity) of WPP67 (phrpN) (hrpN promoter; 12 h): 3.5 ± 0.2
GFP intensity (Mean Fluorescence Intensity) of WPP67 (phrpN) (hrpN promoter; 24 h): 6.3 ± 0.7
GFP intensity (Mean Fluorescence Intensity) of WPP92 (phrpN) (hrpN promoter; 12 h): 3.6 ± 0.1
GFP intensity (Mean Fluorescence Intensity) of WPP92 (phrpN) (hrpN promoter; 24 h): 5.5 ± 0.3
hrpS mRNA relative expression ratio (hrpS mRNA): 0.223
dspE mRNA compared with MM alone (normalized to 1), qRT-PCR (dspE mRNA): significantly lower amount of mRNA
